Data taken from US20160287534A1, “METHODS FOR REVERSING FIBROSIS” (The University of Connecticut, priority 2015, published 2016).

Assays:
primary HSCs = experiment: Activation of primary mouse HSCs on untreated dishes (Example 1): α-SMA qRT-PCR, immunostaining, in-cell Western; format: cell-based, C57BL/6J mice
Source text: Primary HSCs were isolated from C57BL/6J mouse liver using the collagenase/pronase digestion method (see Weiskirchen et al. Fibrosis Research, 2005, vol. 117, pp. 99-113). In brief, mice were anesthetized with ketamine/xylazine (120/6 mpk) (Butler Schein, Dublin, Ohio). Abdominal and chest cavities were opened to expose the portal vein and to locate the heart and vena cava, respectively. Subsequently, a 20 G×1″ I.V. catheter (Terumo, Somerset, N.J.) was inserted into the vena cava through the right atrium and the portal vein was cut. A mouse liver was perfused at 5 mL/min with 25 mL SC-1 solution consisting of the following (per L); 8000 mg NaCl, 400 mg KCl, 88.17 mg NaH2PO4 2H2O, 120.45 mg Na2HPO4 12H2O, 2380 mg 4-(2-hydroxyethyl)-1-piperazineethanesulfonic acid (HEPES), 350 mg NaHCO3, 190 mg ethylene glycol tetraacetic acid, and 900 mg glucose, pH 7.2-7.3. The liver was, then, digested with 300 μg/mL pronase E (Roche, Mannheim, Germany) in SC-2 solution consisting of 8000 mg NaCl, 400 mg KCl, 88.17 mg NaH2PO4 2H2O, 120.45 mg Na2HPO4 12H2O, 2380 mg HEPES, 350 mg NaHCO3, and 560 mg CaCl2 2H2O, per L, pH 7.2-7.3, followed by 600 μg/mL collagenase D (Roche, Mannheim, Germany) in SC-2 solution at 5 mL/min for 5 min each. The digested liver was harvested and filtered through a 100 μm cell strainer (Fisher Scientific, Pittsburgh, Pa.). The hepatic cells were then centrifuged at 60×g for 1 min to separate non-parenchymal cells from hepatocytes. The supernatant containing non-parenchymal cells was separated based on density using a top layer of Gey's Balanced Salt Solution (GBSS), a middle layer of 10% Nycodenz (Axis-Shield, Scotland) and a bottom layer of 14.5% Nycodenz diluted in GBSS. The tube was centrifuged at 2100×g or 20 min and the primary HSCs were collected from the interface between the GBSS and 10% Nycodenz.
LX-2 cells were kindly provided by Dr. Scott Friedman at the Icahn School of Medicine at Mount Sinai (New York, N.Y.). […]

mouse primary HSCs = experiment: ROS measurement in mouse primary HSCs; format: cell-based; conditions: ASTX treatment for 6 d during activation (FIG. 8A)
Method: Mouse primary qHSCs were seeded on an uncoated black 24-well μ-Plate (Ibidi, Verona, Wis.). At day 6 of activation, cellular ROS levels were measured using dichlorofluorescin (Sigma-Aldrich, St. Louis, Mo.) as described (Id.). The cells were then fixed with 4% formaldehyde for 10 min, and incubated with 0.1% CellTag 700 stain (Li—COR, Lincoln, Nebr.), a fluorescent stain, for cell number normalization, for 1 h. Fluorescent signals were obtained by an Odyssey® CLx Infrared Imaging System (Li—COR) and a Li—COR Image Studio software. Data were expressed as relative fluorescent intensity divided by total cell stain signal.

CC1=C(/C=C/C(C)=C/C=C/C(C)=C/C=C/C=C(C)/C=C/C=C(C)/C=C/C2=C(C)C(=O)C(O)CC2(C)C)C(C)(C)CC(O)C1=O (stereo not shown) [ASTX, astaxanthin]
α-SMA mRNA levels (primary HSCs; 25 μM ASTX added for 2 days during HSC activation (FIG. 6A)): significantly reduced | decrease of α-SMA protein (in-cell Western) (primary HSCs; ASTX treatment at days 0, 2 and 4 until day 6, vs control without ASTX (FIG. 6C)): 30-40% | α-SMA protein levels (immunostaining) (primary HSCs; day 4 of incubation, ASTX for 2 days (FIG. 6B)): markedly decreased | cellular ROS levels (mouse primary HSCs): significantly lowered
